This is an account of results in ChEMBL document CHEMBL1201862, “PubChem BioAssay data set” (2004).

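Exposure lasted 48 hours, with cells grown in 96-well plates and compounds tested at five concentrations. The concentration for 50% growth inhibition is given as GI50.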 Calls of active or inactive are those of the source. No stated cut-off is given here; in the data, active = GI50 up to about 1.1 µM and inactive = higher.

Test systems include BT-549; COLO 205; DU-145; HCC 2998; HCT-116; HCT-15; HT-29; LOX IMVI; MDA-MB-231; MDA-MB-435; NCI-H460; OVCAR-3; OVCAR-4; OVCAR-5; OVCAR-8; SF-268; SR; SW-620; TK-10; UO-31.
Holding throughout (assay): NCI-60 cell line screen, 48 h

As for `C/C(=N\NC(N)=S)c1cccs1.OB(O)c1ccccc1`, the GI50 with BT-549 was > 100 µM (inactive); in the assay with COLO 205, > 100 µM (inactive); in the assay on DU-145 it was > 100 µM (inactive); with HCC 2998 it was > 100 µM (inactive); in the assay on HCT-116, > 100 µM (inactive); in the assay with HCT-15, over 100 µM. For the same compound, the GI50 in the assay with HT-29, with LOX IMVI, in the assay with MDA-MB-231, with MDA-MB-435, with NCI-H460 and in the assay on OVCAR-3 was > 100 µM (inactive) in each case. The GI50 in the assay with OVCAR-4, in the assay with OVCAR-5, in the assay on OVCAR-8, in the assay on SF-268, in the assay on SR and in the assay with SW-620 was > 100 µM (inactive) each time. Moreover, the GI50 in the assay on TK-10 was > 100 µM (inactive); with UO-31 it was 66.7 µM (inactive).
Take `COc1cccc2c1C(CO)N1C(C#N)C3CC(C(=O)O)C(C1C2)N3C` (stereo not given): the GI50 was 0.213 µM (active) in the assay with BT-549; 1.26 µM (inactive) in the assay with COLO 205; 0.481 µM (active) with DU-145; 0.405 µM (active) in the assay with HCC 2998; 1.69 µM (inactive) in the assay with HCT-116; 1.43 µM in the assay on HCT-15. Moreover, the GI50 in the assay with HT-29 was 1.64 µM (inactive); in the assay with LOX IMVI, 1.95 µM (inactive); in the assay with MDA-MB-231, 0.15 µM (active); with MDA-MB-435, 0.349 µM (active); in the assay on NCI-H460, 5.19 µM (inactive); in the assay with OVCAR-3, 1.23 µM (inactive). For the same compound, the GI50 was 4.91 µM (inactive) in the assay with OVCAR-4; 2.85 µM (inactive) in the assay on OVCAR-5; 1.68 µM (inactive) with OVCAR-8; 1.85 µM (inactive) with SF-268; 2.08 µM (inactive) in the assay with SR; 2.71 µM (inactive) in the assay on SW-620. Also, the GI50 in the assay with TK-10 was 2.11 µM (inactive); in the assay on UO-31, 1.59 µM (inactive).
As for `c1ccc(CN2COc3c(ccc4c5c(ccc34)CN(Cc3ccccc3)CO5)C2)cc1`, the GI50 was > 100 µM (inactive) in the assay with BT-549; > 100 µM (inactive) in the assay on COLO 205; > 100 µM (inactive) with DU-145; > 100 µM (inactive) in the assay on HCC 2998; > 100 µM (inactive) with HCT-116; over 100 µM in the assay on HCT-15. Further, the GI50 in the assay on HT-29, in the assay on LOX IMVI, in the assay with MDA-MB-231, in the assay on MDA-MB-435, with NCI-H460 and in the assay on OVCAR-3 was > 100 µM (inactive) each time. The GI50 with OVCAR-4, with OVCAR-5, in the assay on OVCAR-8, with SF-268, in the assay on SR and in the assay on SW-620 was > 100 µM (inactive) in each case. Besides, the GI50 in the assay on TK-10 and with UO-31 was > 100 µM (inactive) throughout.
In the case of `O=C(Nc1ccccc1)OCCN=C1c2ccccc2CCc2ccccc21`, the GI50 is 21 µM (inactive) with BT-549; 17.6 µM (inactive) with COLO 205; 24.5 µM (inactive) with DU-145; 27.5 µM (inactive) with HCC 2998; 14.6 µM (inactive) in the assay with HCT-116; 15.7 µM in the assay on HCT-15. Further, the GI50 in the assay with HT-29 was 18.5 µM (inactive); in the assay on LOX IMVI, 20 µM (inactive); in the assay with MDA-MB-231, 15.1 µM (inactive); with MDA-MB-435 it was 22.6 µM (inactive); in the assay on NCI-H460, 21.4 µM (inactive); with OVCAR-3, 13.6 µM (inactive). The GI50 with OVCAR-4 is 21.9 µM (inactive); in the assay with OVCAR-5, 28.7 µM (inactive); in the assay with OVCAR-8, 31.5 µM (inactive); in the assay on SF-268, 25.6 µM (inactive); with SR it was 12.2 µM (inactive); with SW-620, 35 µM (inactive). The figures for the GI50 in the assay with TK-10 and with UO-31 were 31.8 µM (inactive) and 17.3 µM (inactive), respectively.
With `C=C(CCC/C(C)=C/C=C/[C@]1(C)CCCc2ccoc21)CC(=O)O`, the GI50 was 79.1 µM (inactive) with BT-549; > 100 µM (inactive) in the assay on COLO 205; 42.5 µM (inactive) in the assay with DU-145; > 100 µM (inactive) in the assay on HCC 2998; 60 µM (inactive) in the assay on HCT-116; 98.9 µM in the assay on HCT-15. The GI50 in the assay with HT-29 is > 100 µM (inactive); in the assay on LOX IMVI, > 100 µM (inactive); with MDA-MB-231, > 100 µM (inactive); in the assay on MDA-MB-435, > 100 µM (inactive); in the assay on NCI-H460, > 100 µM (inactive); in the assay on OVCAR-3, 54.8 µM (inactive). The GI50 in the assay with OVCAR-4 was > 100 µM (inactive); with OVCAR-5 it was > 100 µM (inactive); in the assay with OVCAR-8 it was > 100 µM (inactive); with SF-268, > 100 µM (inactive); in the assay with SR, 39.3 µM (inactive); in the assay on SW-620, > 100 µM (inactive). Also, the GI50 with TK-10 and with UO-31 was > 100 µM (inactive) throughout.
For the compound `CC1NC(C(=O)O)Cc2cc(O)c(O)cc21` (stereo not given), the GI50 was > 100 µM (inactive) in the assay on BT-549; > 100 µM (inactive) in the assay with COLO 205; > 100 µM (inactive) in the assay on DU-145; > 100 µM (inactive) with HCC 2998; > 100 µM (inactive) with HCT-116; over 100 µM in the assay on HCT-15. The GI50 in the assay with HT-29, in the assay on LOX IMVI, in the assay with MDA-MB-231, in the assay with MDA-MB-435, in the assay with NCI-H460 and in the assay with OVCAR-3 was > 100 µM (inactive) each time. Further, the GI50 in the assay on OVCAR-4, in the assay with OVCAR-5, in the assay with OVCAR-8, in the assay with SF-268, in the assay with SR and in the assay on SW-620 was > 100 µM (inactive) throughout. The GI50 with TK-10 and in the assay on UO-31 was > 100 µM (inactive) each time.
In the case of `C[C@@H](CC(=O)OCc1ccccc1)OC1OC(COC(=O)C(C)(C)C)C(OC(=O)C(C)(C)C)C(OC(=O)C(C)(C)C)C1OC(=O)C(C)(C)C` (stereo not given in full), the GI50 in the assay with BT-549 was > 100 µM (inactive); with COLO 205, > 100 µM (inactive); in the assay on DU-145, > 100 µM (inactive); in the assay on HCC 2998, > 100 µM (inactive); in the assay with HCT-116, > 100 µM (inactive); in the assay with HCT-15, over 100 µM. Moreover, the GI50 in the assay on HT-29, in the assay on LOX IMVI, in the assay with MDA-MB-231, in the assay with MDA-MB-435, with NCI-H460 and with OVCAR-3 was > 100 µM (inactive) each time. The GI50 in the assay with OVCAR-4, with OVCAR-5, in the assay on OVCAR-8, with SF-268, with SR and with SW-620 was > 100 µM (inactive) in each case. The GI50 in the assay with TK-10 and in the assay on UO-31 was > 100 µM (inactive) each time.
As to `CC1CCC2(C(=O)O)CCC3(C)C(=CCC4C5(C)CC(O)C(O)C(C)(CO)C5C(O)CC43C)C2C1C` (stereo not given), the GI50 is 31.7 µM (inactive) in the assay with BT-549; 50 µM (inactive) with COLO 205; > 100 µM (inactive) in the assay on DU-145; 35.9 µM (inactive) with HCC 2998; 5.65 µM (inactive) in the assay with HCT-116; over 100 µM in the assay on HCT-15. In addition, the GI50 with HT-29 was > 88.5 µM (inactive); in the assay on LOX IMVI, 20.5 µM (inactive); in the assay with MDA-MB-231 it was 39.9 µM (inactive); in the assay with MDA-MB-435, 45.6 µM (inactive); in the assay on NCI-H460, > 100 µM (inactive); in the assay with OVCAR-3, 24.1 µM (inactive). The GI50 with OVCAR-4 is > 100 µM (inactive); with OVCAR-5, > 100 µM (inactive); in the assay with OVCAR-8 it was 21.1 µM (inactive); with SF-268 it was 28.5 µM (inactive); with SR, 22.8 µM (inactive); in the assay with SW-620, > 100 µM (inactive). For the same compound, the GI50 in the assay on TK-10 and in the assay with UO-31 was > 100 µM (inactive) each time.
As for `CCOc1ccc2c(c1)c(=O)c1c(NCCN(CC)CC)ccc3nnn2c31`, the GI50 was > 71.3 µM (inactive) with BT-549; 33.9 µM (inactive) in the assay with COLO 205; 19.1 µM (inactive) in the assay on DU-145; > 33.6 µM (inactive) in the assay on HCC 2998; > 25.4 µM (inactive) with HCT-116; 16.9 µM in the assay on HCT-15. The GI50 in the assay on HT-29 was 12.6 µM (inactive); with LOX IMVI, 11.4 µM (inactive); with MDA-MB-231 it was 18.6 µM (inactive); with MDA-MB-435, 16.9 µM (inactive); with NCI-H460 it was 10.9 µM (inactive); with OVCAR-3, > 100 µM (inactive). In addition, the GI50 in the assay on OVCAR-4 was 11.9 µM (inactive); with OVCAR-5, > 36.1 µM (inactive); in the assay with OVCAR-8, 7.05 µM (inactive); with SF-268 it was 21.5 µM (inactive); in the assay on SR, 10.4 µM (inactive); with SW-620, 12.6 µM (inactive). Also, the GI50 was 16.7 µM (inactive) in the assay on TK-10 and 3.4 µM (inactive) with UO-31.
Consider `Cc1ccc(OC2CC(n3cnc4ncnc(Cl)c43)OC2Oc2ccc(C)cc2)cc1` (stereo not given), for which the GI50 in the assay with BT-549 was 25.4 µM (inactive); in the assay with COLO 205, 14.8 µM (inactive); with DU-145, 15.7 µM (inactive); with HCC 2998 it was 8.04 µM (inactive); with HCT-116, 9.77 µM (inactive); in the assay on HCT-15 it was 13.8 µM. Further, the GI50 in the assay on HT-29 was 16.9 µM (inactive); in the assay on LOX IMVI it was 5.51 µM (inactive); in the assay with MDA-MB-231 it was 17.5 µM (inactive); in the assay on MDA-MB-435 it was 39.1 µM (inactive); in the assay on NCI-H460, 12.7 µM (inactive); with OVCAR-3, 14.6 µM (inactive). Moreover, the GI50 with OVCAR-4 is 27.9 µM (inactive); in the assay on OVCAR-5, 22 µM (inactive); in the assay on OVCAR-8, 8.32 µM (inactive); in the assay with SF-268 it was 18.7 µM (inactive); with SR, 2.48 µM (inactive); with SW-620 it was 48.5 µM (inactive). Also, the GI50 in the assay with TK-10 was > 100 µM (inactive); in the assay on UO-31, 11.1 µM (inactive).
